Results from PubChem BioAssay (NCI).
Values joined by “and” are separate entries in the source; they are usually repeats but may differ in a detail not shown here. Equal entries are not always repeated.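 Exposure lasted 48 hours, with cells grown in 96-well plates and compounds tested at five concentrations. GI50: concentration for 50% inhibition of growth. The concentration for full growth arrest is given as TGI.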

How the values were obtained:
Test in all cases: NCI-60 cell line screen, 48 h
[1] = test system: SF-295 CNS
[2] = test system: OVCAR-4 ovarian
[3] = test system: SNB-19 CNS
[4] = test system: OVCAR-3 ovarian
[5] = test system: IGROV1 ovarian
[6] = test system: CCRF-CEM leukemia
[7] = test system: MDA-MB-435
[8] = test system: SF-539 CNS
[9] = test system: CAKI-1 renal
[10] = test system: UO-31 renal

Compound: Cc1ncc(C(=O)Nc2ccc(CN3CCN(C)CC3)c(C(F)(F)F)c2)cc1C#Cc1cnc(N)cc1C#N
- GI50 [1]: 1.88 µM
- TGI [1]: 3.98 µM
- GI50 [2]: 0.144 µM
- TGI [2]: 2.64 µM
- GI50 [3]: 2.37 µM
- TGI [3]: 4.67 µM
- GI50 [4]: 995 nM
- TGI [4]: 3.25 µM
- GI50 [5]: 0.103 µM
- TGI [5]: 2.06 µM
- GI50 [6]: 0.549 µM
- TGI [6]: 3.2 µM
- GI50 [7]: 0.084 µM
- TGI [7]: 1.61 µM
- GI50 [8]: 0.542 µM
- TGI [8]: 2.93 µM
- GI50 [9]: 0.154 µM
- TGI [9]: 1.38 µM
- GI50 [10]: 0.307 µM
- TGI [10]: 1.33 µM

Compound: CSc1nc(SC)c2c(CO)c(Br)n(Cc3ccccc3)c2n1
- TGI [1]: 40.9 µM
- TGI [2]: 41.7 µM
- TGI [3]: 84.3 µM
- TGI [4]: > 100 µM
- TGI [5]: 39.3 µM
- TGI [6]: > 100 µM
- TGI [7]: > 100 µM
- TGI [8]: 29.1 µM
- TGI [9]: 23.6 µM
- TGI [10]: 44.4 µM

Compound: COc1ccc(-c2ccc(-c3ccc(C(=N)N)o3)o2)cc1
- GI50 [1]: 1.68 µM
- TGI [1]: 3.51 µM
- GI50 [2]: 2.22 µM
- TGI [2]: 12.2 µM
- GI50 [3]: 1.99 µM
- TGI [3]: 11.3 µM
- GI50 [4]: 924 nM
- TGI [4]: 2.74 µM
- GI50 [5]: 1.73 µM
- TGI [5]: 7.03 µM
- GI50 [6]: 1.84 µM
- TGI [6]: 6.75 µM
- GI50 [7]: 0.293 µM
- TGI [7]: 1.12 µM
- GI50 [8]: 1.88 µM
- TGI [8]: 3.63 µM
- GI50 [9]: 1.75 µM
- TGI [9]: 4.29 µM
- GI50 [10]: 1.72 µM
- TGI [10]: 3.79 µM

Compound: OCC#Cc1ccccc1C#CCCCCCC#Cc1ccccc1C#CCO
- GI50 [1]: 16.9 µM
- TGI [1]: 33.8 µM
- GI50 [2]: 41 µM
- TGI [2]: > 100 µM
- GI50 [3]: 34.8 µM
- TGI [3]: > 100 µM
- GI50 [4]: 16000 nM
- TGI [4]: 32.9 µM
- GI50 [5]: 18.7 µM
- TGI [5]: 43.3 µM
- GI50 [6]: 22.9 µM
- TGI [6]: 49.6 µM
- GI50 [7]: 18.8 µM
- TGI [7]: 36.1 µM
- GI50 [8]: 20 µM
- TGI [8]: 36.3 µM
- GI50 [9]: 19.3 µM
- TGI [9]: 43.8 µM
- GI50 [10]: 17.1 µM
- TGI [10]: 33.8 µM

Compound: CN(C)c1ccc(/C=C/c2cc[n+](C)c(/C=C/c3ccc(N(C)C)cc3)c2)cc1
- GI50 [1]: 0.27 µM
- TGI [1]: 1.32 µM
- GI50 [2]: 0.225 µM
- TGI [2]: 1.01 µM
- GI50 [3]: 0.322 µM
- TGI [3]: 2.95 µM
- GI50 [4]: 337 nM
- TGI [4]: 1.56 µM
- GI50 [5]: 0.821 µM
- TGI [5]: 3.43 µM
- GI50 [6]: 0.248 µM
- TGI [6]: 3.78 µM
- GI50 [7]: 0.346 µM
- TGI [7]: 1.32 µM
- GI50 [8]: 0.393 µM
- TGI [8]: 3.01 µM
- GI50 [9]: 1.42 µM
- TGI [9]: 7.4 µM
- GI50 [10]: 1.81 µM
- TGI [10]: 11.9 µM

Compound: COC(=O)[C@@H](C)C[C@H](Cc1ccccc1)NC(=O)c1csc([C@@H](C[C@H](C(C)C)N(C)C(=O)[C@@H](NC(=O)[C@H]2CCCCN2C)C2CC2)OC(C)=O)n1
- GI50 [1]: 0.000345 µM
- TGI [1]: 0.00369 µM
- GI50 [2]: 0.00909 µM and 0.006 µM
- TGI [2]: > 16.5 µM
- GI50 [3]: 0.000552 µM and 0.00165 µM
- TGI [3]: > 16.5 µM
- GI50 [4]: 0.0497 nM and < 1.65 nM
- TGI [4]: 0.00379 µM and < 0.00165 µM
- GI50 [5]: 0.00104 µM and 0.00165 µM
- TGI [5]: > 16.5 µM
- GI50 [6]: 0.000621 µM and 0.00165 µM
- TGI [6]: > 16.5 µM
- GI50 [7]: < 0.00165 µM
- TGI [7]: < 0.00165 µM
- GI50 [8]: 0.00125 µM and 0.00165 µM
- TGI [8]: 0.00448 µM and 0.00257 µM
- GI50 [9]: 0.00577 µM
- GI50 [10]: 0.00516 µM and 0.00284 µM
- TGI [10]: > 16.5 µM

Compound: O=C1C[C@@H]2/C(=C(O)\C=C\c3ccccc3)C(=O)C=C[C@@H]2O1
- GI50 [1]: 3.44 µM
- TGI [1]: 13.7 µM
- GI50 [2]: 3.64 µM
- TGI [2]: 13 µM
- GI50 [3]: 9.03 µM
- TGI [3]: 22.6 µM
- GI50 [4]: 497 nM
- TGI [4]: 1.82 µM
- GI50 [5]: 0.385 µM
- TGI [5]: 1.56 µM
- GI50 [6]: 0.447 µM
- TGI [6]: 2.89 µM
- GI50 [7]: 1.61 µM
- TGI [7]: 3.49 µM
- GI50 [8]: 2.3 µM
- TGI [8]: 8.35 µM
- GI50 [9]: 2.35 µM
- TGI [9]: 11.8 µM
- GI50 [10]: 0.878 µM
- TGI [10]: 2.2 µM

Compound: COc1cc(-c2nc(SCCC(C)C)nc(Nc3ccc(S(N)(=O)=O)cc3)c2C#N)cc(OC)c1OC
- GI50 [1]: 2.71 µM
- TGI [1]: 7.35 µM
- GI50 [2]: 3.45 µM
- TGI [2]: > 100 µM
- GI50 [3]: 5.38 µM
- TGI [3]: > 100 µM
- GI50 [4]: 2380 nM
- TGI [4]: 6.12 µM
- GI50 [5]: 3.39 µM
- TGI [5]: > 100 µM
- GI50 [6]: 2.88 µM
- TGI [6]: > 100 µM
- GI50 [7]: 3.15 µM
- TGI [7]: > 100 µM
- GI50 [8]: 2.01 µM
- TGI [8]: 5.22 µM
- GI50 [9]: 4 µM
- TGI [9]: > 100 µM
- GI50 [10]: 1.82 µM
- TGI [10]: > 100 µM

Compound: Cn1cc(-c2ccc(-c3ccc(C4=NC5(CC5)C(=O)N4C[C@@H]4CCN(C(=O)C5CC5)C4)cc3)cc2)cn1
- GI50 [1]: 10.8 µM
- TGI [1]: 29.2 µM
- GI50 [2]: 5.74 µM
- TGI [2]: > 100 µM
- GI50 [3]: 21.8 µM
- TGI [3]: > 100 µM
- GI50 [4]: 11500 nM
- TGI [4]: 28.1 µM
- GI50 [5]: 28.7 µM
- TGI [5]: > 100 µM
- GI50 [6]: 6.01 µM
- TGI [6]: 42.5 µM
- GI50 [7]: 10.4 µM
- TGI [7]: 38.9 µM
- GI50 [8]: 10.7 µM
- TGI [8]: 32.1 µM
- GI50 [9]: 12.6 µM
- TGI [9]: > 100 µM
- GI50 [10]: 1.47 µM
- TGI [10]: > 100 µM

Compound: COc1cc2c(cc1OC)C13CCN4CC5CCOC6CC(=O)N2C1C6C5CC43 (centres undefined)
- TGI [1]: > 100 µM
- TGI [2]: > 100 µM
- TGI [3]: > 100 µM
- TGI [4]: > 100 µM
- TGI [5]: > 100 µM
- TGI [6]: > 100 µM
- TGI [7]: > 100 µM
- TGI [8]: > 100 µM
- TGI [9]: > 100 µM
- TGI [10]: > 100 µM
